Experimental data reported in ChEMBL document CHEMBL6134902, “Novel tacrine-based multi-target directed Ligands: Enhancing cholinesterase inhibition, NMDA receptor antagonism, and CNS bioavailability for Alzheimer's disease treatment” (Eur J Med Chem, 2025).

Assays:
[1] = Lipophilicity, LogD of compound at pH 2.6 by chromatography; format: physicochemical; conditions: buffer
[2] = Lipophilicity, LogD of compound at pH 7.4 by chromatography; format: physicochemical; conditions: buffer
[3] = Lipophilicity, LogD of compound at pH 10.5 by chromatography; format: physicochemical; conditions: buffer
[4] = Toxicity in male BALB/c mouse administered intraperitoneally measured for 48 hrs; conditions: in vivo, route ip
[5] = Drug uptake in plasma of male BALB/c mouse at 15 mg/kg, ip measured after 48 hrs; format: ADME, organism-based; conditions: in vivo
[6] = Drug uptake in brain of male BALB/c mouse at 15 mg/kg, ip measured after 48 hrs; format: ADME, organism-based; conditions: in vivo
[7] = Cmax in plasma of male Balb/c mouse at 15 mg/kg, ip measured up to 120 mins; format: ADME, organism-based
[8] = Tmax in plasma of male Balb/c mouse at 15 mg/kg, ip measured up to 120 mins; format: ADME, organism-based
[9] = AUC (0 to 120 mins) in plasma of male Balb/c mouse at 15 mg/kg, ip measured up to 120 mins; format: ADME, organism-based
[10] = AUC (infinity) in plasma of male Balb/c mouse at 15 mg/kg, ip measured up to 120 mins; format: ADME, organism-based
[11] = Cmax in brain of male Balb/c mouse at 15 mg/kg, ip measured up to 120 mins; format: ADME, organism-based
[12] = Tmax in brain of male Balb/c mouse at 15 mg/kg, ip measured up to 120 mins; format: ADME, organism-based
[13] = AUC (0 to 120 mins) in brain of male Balb/c mouse at 15 mg/kg, ip measured up to 120 mins; format: ADME, organism-based
[14] = AUC (infinity) in brain of male Balb/c mouse at 15 mg/kg, ip measured up to 120 mins; format: ADME, organism-based
[15] = human, microsomes, 0.75 h, 3 µM
in vivo = conditions: male, Balb/c, mouse, brain/plasma, ip, 15 mg/kg
in vitro [16] = conditions: human, liver microsomes
in vitro [17] = conditions: human, liver microsomes; remark: listed apart in the source

SMILES | chromatographic logD [1] | chromatographic logD [2] | chromatographic logD [3] | CHI | Drug metabolism [15] | half-life at 0.75 h, 3 µM (in vitro [16]) | microsomal CLint at 0.75 h, 3 µM (in vitro [17]) | further results
COc1cc(-c2ccc3nc4c(c(N)c3c2)CCCC4)ccn1 | 1.63 | 3.69 | 3.99 | 25.3 | – | – | – | –
Nc1c2c(nc3ccc(-c4ccsc4)cc13)CCCC2 | 1.78 | 3.8 | 4.48 | 29.9 | – | – | – | –
Cc1csc(-c2ccc3nc4c(c(N)c3c2)CCCC4)c1 | 2.12 | 4.41 | 4.96 | 33 | 207 10^6No_unit | 6.2 min | 224 µL/min/mg | NOAEL at 48 h [4]: 15 mg/kg; Drug uptake [5]: Active; Drug uptake [6]: Active; Cmax [7]: 945 nM; Tmax [8]: 15 min; AUC(0-t) at 2 h [9]: 0.775 µM·h; AUC(0-inf) [10]: 1.08 µM·h; Cmax [11]: 1470 nM; Tmax [12]: 26.2 min; AUC(0-t) at 2 h [13]: 1.83 µM·h; AUC(0-inf) [14]: 1.96 µM·h; Kp at 2 h (in vivo): 2.36
Nc1c2c(nc3ccc(-c4cncnc4)cc13)CCCC2 | 0.99 | 2.73 | 2.59 | 14.7 | 200.7 10^6No_unit | 93.7 min | 14.8 µL/min/mg | –
CC(C)COc1cccc(-c2ccc3nc4c(c(N)c3c2)CCCC4)c1 | 2.87 | 5.58 | 5.79 | 38.8 | – | – | – | –
Nc1c2c(nc3ccc(-c4cccs4)cc13)CCCC2 | 1.77 | 3.85 | 4.54 | 29.6 | – | – | – | –
Nc1c2c(nc3ccc(-c4ccncc4)cc13)CCCC2 | 0.47 | 3.52 | 3.05 | 20.2 | 172.8 10^6No_unit | 30 min | 46.2 µL/min/mg | –
COc1ccc2nc3c(c(N)c2c1)CCCC3 | – | – | – | – | 13.2 10^6No_unit | 32.8 min | 42.2 µL/min/mg | –
COc1ncc(-c2ccc3nc4c(c(N)c3c2)CCCC4)cn1 | 1.26 | 2.94 | 3.2 | 19.1 | – | – | – | –
Nc1c2c(nc3ccc(-c4ccoc4)cc13)CCCC2 | 1.59 | 3.43 | 4.08 | 26.2 | – | – | – | –
Nc1c2c(nc3ccc(-c4ccc(F)nc4)cc13)CCCC2 | 1.44 | 3.24 | 3.81 | 23 | – | – | – | –
COc1ncc(-c2ccc3nc4c(c(N)c3c2)CCCC4)c(OC)n1 | 0.65 | 1.2 | 1.4 | 12.2 | – | – | – | –
Nc1c2c(nc3ccc(-c4ccc(Cl)nc4)cc13)CCCC2 | 1.6 | 3.65 | 4.15 | 26 | – | – | – | –
Cc1ccc(-c2ccc3nc4c(c(N)c3c2)CCCC4)o1 | 1.94 | 4.06 | 4.58 | 29.5 | 215.5 10^6No_unit | 5.8 min | 239 µL/min/mg | –
CN(C)c1cccc(-c2ccc3nc4c(c(N)c3c2)CCCC4)c1 | 1.4 | 4.5 | 4.86 | 31.6 | – | – | – | –
Nc1c2c(nc3ccc(Oc4ccccc4)cc13)CCCC2 | 1.83 | 3.82 | 4.49 | 27.6 | 473.1 10^6No_unit | 330 min | 4.2 µL/min/mg | –
Nc1c2c(nc3ccc(-c4ccc(Cl)s4)cc13)CCCC2 | 2.28 | 4.86 | 5.42 | 37.9 | – | – | – | –
